# Assay results reported in US6479487B1, “6, 9-disubstituted 2-[trans-(4-aminocyclohexyl)amino] purines” (Aventis Pharmaceuticals Inc., priority 1998, dated 2002).
# Values joined by “and” are separate entries in the source; they are usually repeats but may differ in a detail not shown here. Equal values may be shown once. Where a name gives a salt, the structure may show the parent alone. Read-outs that look alike come from different tables or passages of the source.
# Tests used:
# A549 = assay: In vitro tumor cell proliferation, A549; assay type: cell-based, human; settings: many values given with an undefined *, read-out: In vitro Tumor Cell Proliferation (IC50, μM) Lung A549
# Method: (§1) The proliferation of tumor cells was measured using a sulforhodamine B assay as described in Skehan, P., et al., J. Natl. Cancer Inst. […] Tumor cells were harvested with trypsin-EDTA, cells that excluded trypan blue were counted, added to 96-well plates and incubated overnight at 37° C. Drug was added to the wells following dilution in culture medium. Three days later, the medium was removed and replenished with medium containing fresh drug and incubated an additional 4 days. The cells were then fixed with 0.1 ml 10% trichloroacetic acid for 60 min at 4° C. The plates were rinsed five times with tap water, air-dried and stained for 30 min with 0.4% sulforhodamine B in 1% acetic acid and air-dried.
# (§2) Alternatively, the CyQUANT cell proliferation assay was used to quantitate cell proliferation.
# (§3) Alternatively, the CyQUANT cell proliferation assay was used to quantify tumor cell proliferation. Tumor cells were harvested with trypsin-EDTA, cells that excluded trypan blue were counted, added to 96-well plates and incubated overnight at 37° C. Drug was added to the wells following dilution in culture medium. Three days later the medium was removed and the plates frozen at −80° C. for at least 30 minutes.
# Colo-205 = assay: In vitro tumor cell proliferation, Colo-205; assay type: cell-based; settings: values given with an undefined *, read-out: In vitro Tumor Cell Proliferation (IC50, μM) Colon Colo-205
# Method: as §1, §2, §3
# cdk2/cyclin E = target: T1, cdk2/cyclin E (Homo sapiens, UniProt P24941); assay: Cyclin-Dependent Kinase 2 Assay (cdk2/cyclin E, GST-Rb substrate); assay type: biochemical; settings: recombinant cdk2/cyclin E, 10 μM ATP, 30 min at 30° C., several values in a cell = separate determinations, read-out: CDK-2 Inhibition IC50
# T1 construct: made in house; host or cells: insect cells (baculovirus co-infection)
# Method: Substrate: GST-Rb as described above for cdk4/cyclin D1
# Assay conditions for cdk2/cyclin E were identical to those for cdk4/cyclin D1 including the substrate. The concentration of recombinant cdk2/cyclin E in the assay was 0.1 μg per 100 μl assay. Incubation was for 30 min at 30° C.
# cdk4/cyclin D1 = target: T2, cdk4/cyclin D1 (Homo sapiens, UniProt P11802); assay: Cyclin-dependent Kinase 4 Assay (cdk4/cyclin D1, GST-Rb substrate); assay type: biochemical; settings: cdk4/cyclin D1 insect cell lysate, 10 μM ATP, 30 min at 37° C., several values = separate determinations, read-out: CDK4 Inhibition IC50
# T2 construct: made in house; host or cells: Sf9 insect cells (Bac-to-Bac baculovirus, pFastBac)
# Method: The IC50 values for cdk4 inhibition were by the following method:
# The transformed bacteria were grown overnight to saturation, then diluted in YT broth and incubated at 37° C. for 2 h. The protein was induced by incubation with 0.1 mM isopropylthioglycoside for 3 h. Following sedimentation by centrifugation, the cells were lysed by sonication in STE buffer ([…] NaCl, 10 mM Tris, pH 8.0, 1 mM EDTA) containing 10% sarkosyl. Particulate matter was removed by centrifugation and the lysate was incubated with glutathione-Sepharose at 4° C. The beads were washed with kinase buffer and then quantitation of Coomassie blue-stained proteins separated by SDS-PAGE was performed using a protein standard of known concentration.
# The cDNA for human cyclin D1 was cloned by RT PCR using […] from MCF-7 cells. […] Bacmid DNA was used to transfect Sf9 insect cells to produce recombinant virus. Following plaque purification of the virus, the viral preparations were amplified until high titer stocks were acheived.
# Lysates were prepared by lysis of Sf9 cells coinfected with cdk4 and cyclin D1 in 50 mM HEPES, pH 7.5, 10 mM MgCl2, 1 mM DTT, 0.1 mM phenylmethylsulfonyl fluoride, 5 μg/ml aprotinin, and 5 μg/ml leupeptin using a PARR bomb under 500 p.s.i nitrogen pressure for 5 min at 4° C. Insoluble material was sedimented at 10,000×g for 20 min at 4° C. Glycerol was added to the supernatant to 10% and stored at −80° C. in aliquots.
# Pre-wet Millipore Multiscreen 96-well filter plates (0.65 μm Durapore filters) with 200 μl kinase buffer (50 mM HEPES, pH 7.5, 10 mM MgCl2, 1 mM EGTA). GST-Rb (0.5 μg) bound to glutathione-Sepharose beads is added in 50 μl per well and the solution removed by application of vacuum. […] Add 0.1 μg cdk4/cyclin D1 (insect cell lysate) to initiate assay. Incubate 30 min at 37° C. Terminate reaction by filtration on Millipore Vacuum Manifold. Wash four times with TNEN (20 mM Tris, pH 8.0, 100 mM Na Cl, 1 mM EDTA, 0.5% nonidet P-40). After drying the plates at room temperature, the filter plates were placed in adapter plates (Packard) and 40 μl of Microscint-O® (Packard) was added to each well. Top Seal A film was used to cover the plates before counting in a Top Count Scintillation Counter.
# DMS-114 = assay: In vitro tumor cell proliferation, DMS-114; assay type: cell-based, human; settings: many values given with an undefined *, read-out: In vitro Tumor Cell Proliferation (IC50, μM) Lung DMS-114
# Method: DMS-1 14: human small cell lung carcinoma;
# as §1, §2, §3
# MDA-MB-435 = assay: In vitro tumor cell proliferation, MDA-MB-435; assay type: cell-based; settings: values given with an undefined *, read-out: In vitro Tumor Cell Proliferation (IC50, μM) Breast MDA-MB-435
# Method: as §1, §2, §3
# MDA-MB-231 = assay: In vitro tumor cell proliferation, MDA-MB-231; assay type: cell-based, human; settings: sulforhodamine B or CyQUANT assay, many values given with an undefined *, read-out: In vitro Tumor Cell Proliferation (IC50, μM) Breast MDA-MB-231
# Method: as §1, §2, §3
# MDA-MB-23 1 is a human breast adenocarcinoma, hormone-independent (HTB 26);
# PC-3 = assay: In vitro tumor cell proliferation, PC-3; assay type: cell-based, human; settings: many values given with an undefined *, read-out: In vitro Tumor Cell Proliferation (IC50, μM) Prostate PC-3
# Method: as §1, §2, §3
# HT-29 = assay: In vitro tumor cell proliferation, HT-29; assay type: cell-based, human; settings: many values given with an undefined *, read-out: In vitro Tumor Cell Proliferation (IC50, μM) Colon HT-29
# Method: as §1, §2, §3
# HT-29 is a human colon adenocarcinoma, moderately well-differentiated grade II (HTB 38);
# DU145 = assay: In vitro tumor cell proliferation, DU145; assay type: cell-based, human; settings: many values given with an undefined *, read-out: In vitro Tumor Cell Proliferation (IC50, μM) Prostate DU145
# Method: as §1, §2, §3
# [1] = Homo sapiens, COLO 205, Colo-205
# [2] = Homo sapiens, MDA-MB-435, MDA-MB-435
# [3] = Homo sapiens, MDA-MB-231, MDA-MB-231
# T2 sequence (P11802 whole entry): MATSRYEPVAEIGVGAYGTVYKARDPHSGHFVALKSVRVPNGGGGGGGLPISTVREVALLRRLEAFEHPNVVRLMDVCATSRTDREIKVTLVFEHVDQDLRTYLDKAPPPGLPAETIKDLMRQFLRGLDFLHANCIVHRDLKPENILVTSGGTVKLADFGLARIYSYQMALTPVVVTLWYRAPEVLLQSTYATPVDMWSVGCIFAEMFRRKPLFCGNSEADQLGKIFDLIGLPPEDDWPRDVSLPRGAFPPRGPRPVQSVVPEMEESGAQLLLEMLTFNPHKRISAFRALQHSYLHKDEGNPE
# T2 sequence (P24385 whole entry partner): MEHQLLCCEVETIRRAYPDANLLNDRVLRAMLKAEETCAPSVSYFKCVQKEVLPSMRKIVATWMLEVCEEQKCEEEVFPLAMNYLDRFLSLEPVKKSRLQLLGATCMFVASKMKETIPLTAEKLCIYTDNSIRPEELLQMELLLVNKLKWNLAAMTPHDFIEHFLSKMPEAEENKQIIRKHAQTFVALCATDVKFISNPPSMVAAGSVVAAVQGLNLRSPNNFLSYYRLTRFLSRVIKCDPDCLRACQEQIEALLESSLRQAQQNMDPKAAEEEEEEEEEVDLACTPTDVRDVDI
SMILES,"IC50 (A549; Homo sapiens, A549, A549)","IC50 (Colo-205; Colo-205, dihydrochloride)",IC50 (Colo-205; [1]),IC50 (cdk2/cyclin E),IC50 (cdk4/cyclin D1),"IC50 (DMS-114; DMS-114, dihydrochloride)","IC50 (DMS-114; Homo sapiens, DMS-114, DMS-114)",IC50 (MDA-MB-435; [2]),IC50 (MDA-MB-231; [3]),"IC50 (PC-3; Homo sapiens, PC-3, PC-3)","IC50 (PC-3; PC-3, dihydrochloride)","IC50 (HT-29; HT-29, dihydrochloride)","IC50 (HT-29; Homo sapiens, HT-29, HT-29)","IC50 (MDA-MB-435; MDA-MB-435, dihydrochloride)","IC50 (MDA-MB-231; MDA-MB-231, dihydrochloride)","IC50 (A549; A549, dihydrochloride)","IC50 (DU145; Homo sapiens, DU-145, DU145)",further results
"COc1ccc(CNc2nc(N[C@H]3CC[C@H](N)CC3)nc3c2ncn3C(C)C)cc1OC [Example 19, 2-[Trans-(4-aminocyclohexyl)amino]-6-[(3.4-dimethoxybenzyl)amino]-9-(2-propyl)purine dihydrochloride]",22 µM,10 µM,12 µM,540 nM,20000 nM,15 µM,12 µM,20 µM,15 µM,,,,,,,,,
"COc1cccc(CCNc2nc(N[C@H]3CC[C@H](N)CC3)nc3c2ncn3C2CCCC2)c1 [Example 27, 2-[Trans-(4-aminocyclohexyl)amino]-6-[2-(3-methoxyphenyl)ethylamino]-9-cyclopentylpurine dihydrochloride]",3.1 µM,4.6 µM,4.9 µM,130 nM,1400 nM,,2.1 µM,9.3 µM,10 µM,2.6 µM,3 µM,5.2 µM,3.8 µM,7.2 µM,6 µM,1.6 µM,,
"N[C@H]1CC[C@H](Nc2nc(Nc3ccccc3)c3ncn(C4CCCC4)c3n2)CC1 [Example 32, 2-[Trans-(4-aminocyclohexyl)amino]-6-(phenylamino)-9-cyclopentylpurine dihydrochloride]",0.37 µM,1.2 µM,0.82 µM,54 nM and 25 nM and 27 nM and 14 nM,1300 nM and 1600 nM,0.51 µM,0.61 µM,1.59 µM,0.85 µM,,,1.1 µM,1 µM,1.39 µM,0.68 µM,0.68 µM,0.39 µM,"IC50 (DU145; DU145, dihydrochloride): 0.64 µM"
"N[C@H]1CC[C@H](Nc2nc(NC3CCN(Cc4ccccc4Cl)CC3)c3ncn(C4CCCC4)c3n2)CC1 [Example 43, 2-[Trans-(4-aminocyclohexyl)amino]-6-[4-(1-(2-chlorobenzyl))piperidinylamino]-9-cyclopentylpurine]",0.25 µM,,0.28 µM,150 nM and 200 nM,3900 nM and 7700 nM,,0.43 µM,0.33 µM,0.37 µM,,,,,,,,0.3 µM,IC50 (A549; A549): 0.23 µM; IC50 (Colo-205; Colo-205): 0.23 µM; IC50 (DU145; DU145): 0.32 µM; IC50 (DMS-114; DMS-114): 0.41 µM; IC50 (MDA-MB-435; MDA-MB-435): 0.57 µM; IC50 (MDA-MB-231; MDA-MB-231): 0.43 µM
"N[C@H]1CC[C@H](Nc2nc(NC3CCN(CC4CC4)CC3)c3ncn(C4CCCC4)c3n2)CC1 [Example 52, 2-[Trans-(4-aminocyclohexyl)amino]-6-[4-(1-cyclopropylmethyl)piperidinylamino]-9-cyclopentylpurine]",0.57 µM,,1.5 µM,190 nM,740 nM and 1400 nM and 1100 nM,,,2.1 µM,1 µM,1.7 µM,,,1.6 µM,,,,1.4 µM,IC50 (PC-3; PC-3): 2.1 µM; IC50 (HT-29; HT-29): 2 µM; IC50 (A549; A549): 0.68 µM; IC50 (Colo-205; Colo-205): 1.1 µM; IC50 (DU145; DU145): 1.5 µM; IC50 (MDA-MB-435; MDA-MB-435): 2.4 µM; IC50 (MDA-MB-231; MDA-MB-231): 1.2 µM

# Now from value to compound, other results behind:
"IC50 (A549; Homo sapiens, A549, A549)","IC50 (Colo-205; Colo-205, dihydrochloride)",IC50 (Colo-205; [1]),IC50 (cdk2/cyclin E),IC50 (cdk4/cyclin D1),"IC50 (DMS-114; DMS-114, dihydrochloride)","IC50 (DMS-114; Homo sapiens, DMS-114, DMS-114)",IC50 (MDA-MB-435; [2]),IC50 (MDA-MB-231; [3]),"IC50 (PC-3; Homo sapiens, PC-3, PC-3)","IC50 (PC-3; PC-3, dihydrochloride)","IC50 (HT-29; HT-29, dihydrochloride)","IC50 (HT-29; Homo sapiens, HT-29, HT-29)","IC50 (MDA-MB-435; MDA-MB-435, dihydrochloride)","IC50 (MDA-MB-231; MDA-MB-231, dihydrochloride)","IC50 (A549; A549, dihydrochloride)","IC50 (DU145; Homo sapiens, DU-145, DU145)",SMILES,further results
,5.3 µM,3.9 µM,370 nM,400 nM and 1300 nM and 570 nM,2.8 µM,2.7 µM,10 µM,4.2 µM,2.5 µM,2.3 µM,4.4 µM,4 µM,11 µM,8.2 µM,,,"COCCCNc1nc(N[C@H]2CC[C@H](N)CC2)nc2c1ncn2C1CCCC1 [Example 22, 2-[Trans-(4-aminocyclohexyl)amino]-6-(3-methoxypropylamino)-9-cyclopentylpurine dihydrochloride]",
,15 µM,,110 nM,530 nM and 520 nM,15 µM,17 µM,23 µM,,15 µM,8 µM,22 µM,,22 µM,,17 µM,,"N[C@H]1CC[C@H](Nc2nc(NCCOCCO)c3ncn(C4CCCC4)c3n2)CC1 [Example 26, 2-[Trans-(4-aminocyclohexyl)amino]-6-(2-hydroxyethoxyethylamino)-9-cyclopentylpurine dihydrochloride]",
